Test results published in PMC6895180 (Nature Communications, 2019).
Values joined by “and” are separate entries in the source; they are usually repeats but may differ in a detail not shown here. Equal entries are not always repeated. Where two headings read alike, the source gives them in different places. Marks after values point to notes of the source that are not given here.

Assays:
[1] = test system: TbAT1-KO: T. brucei cell line lacking the TbAT1(P2) transporter gene; assay: microbe, parasite or virus in culture; assay type: cell-based, Trypanosoma brucei brucei; conditions: for EC50: Trypanosoma brucei; for RF (TbAT1-KO): resistance factor: ratio of EC50 of resistant and Lister 427WT
Procedure: (§1) Drug susceptibility tests with Lister 427WT, TbAT1-KO[48], B48[26] and ISMR1[27] were performed using an assay based on the viability indicator dye resazurin in 96-well plates, each well containing 2 × 10^4 cells. The plates were incubated for 48 h with a doubling dilution series of the test compounds in HMI-9/fetal bovine serum at 37 °C/5% CO2 (23 dilutions starting at 100 µM, except for the pentamidine control (50 µM)), after which resazurin (20 µL of 125 µg mL^−1 resazurin sodium salt solution was added to each well (containing 200 µL of cells and test compound)) was added to each well and the plates incubated for another 24 h. Fluorescence was determined using a FLUOstar Optima (BMG Labtech, Durham, NC) and the results fitted to a sigmoid curve with variable slope using Prism 5.0 or Prism 7.04 (GraphPad, San Diego, CA).

[2] = test system: ISMR1: isometamidium-resistant T. brucei cell line; assay: microbe, parasite or virus in culture; assay type: cell-based, Trypanosoma brucei brucei; conditions: for EC50: Trypanosoma brucei; for RF (ISMR1): resistance factor vs Lister 427WT
Procedure: as §1

[3] = test system: B48: pentamidine, diminazene and melaminophenyl arsenical resistant T. brucei line; assay: microbe, parasite or virus in culture; assay type: cell-based, Trypanosoma brucei brucei; conditions: for EC50: Trypanosoma brucei; for RF (B48): resistance factor vs Lister 427WT
[4] = test system: T. b. brucei Lister 427WT; assay: Drug susceptibility test (resazurin), Lister 427WT; assay type: cell-based, Trypanosoma brucei brucei; conditions: Trypanosoma brucei
Procedure: as §1

[5] = test system: T. b. brucei AnTAR1.1 PPYRE9; assay: Mouse model of stage 2 HAT (BLI, parasitaemia, SL-RNA qPCR); assay type: in vivo; conditions: for BLI of the head region, RLU data: individual animals; for RLU data, individual mice: Melarsoprol
Procedure: […] Treatment was initiated at 21 dpi. […] Mice were injected i.p. with […] of D-luciferin and anaesthetised using isoflurane. The luminescent signal was acquired from both the dorsal and ventral side of the animals. […] Animals subjected to the different treatment schemes (from 4 wpi) were additionally imaged over a 5 min exposure time for enhanced sensitivity. […] Tissues were weighed and RNA was extracted using the RNeasy Plus Mini Kit (Qiagen) according to the manufacturer’s recommendations. […] A list of primers used is provided in the Supplementary Methods section of the Supplementary Information. BLI images from the IVIS Spectrum In Vivo Imaging System (Perkin Elmer) were analysed using LivingImage v4.3.1. SoftWoRx suite 2.0 for microscopy (image deconvolution), then processing using the Fiji software.

[6] = test system: Lister 427WT T. b. brucei; assay: Adenosine deaminase susceptibility (drug sensitivity with/without 2 µM deoxycoformycin); assay type: cell-based, Trypanosoma brucei brucei
Procedure: as §1, with “CA). […]” for “CA).”
Adenosine deaminase susceptibility
in the presence or absence of 2 µM 2’-deoxycoformycin. […]

[7] = test system: T. b. brucei Squib 427; assay: Mouse model of acute HAT; conditions: Suramin 10 mg/kg sid IP
Procedure: Drinking water and food were available ad libitum throughout the experiment. […] The reference drug suramin was formulated in phospahte-buffered saline (PBS) at 2.5 mg mL^−1 and administered s.i.d. i.p. for 5 days at 10 mg kg^−1 (n = 3). All treatments were initiated 30 min prior to the i.p. infection. […] Parasitaemia was determined by microscopic evaluation of tail vein blood samples at 4, 7, 10, 14 and 21 dpi (pre-set endpoint). As a test of cure, blood samples (250 µL) were collected from treated mice at 21 dpi and were sub-inoculated i.p. in naive Swiss mice (n = 3), followed by monitoring of parasitaemia as follow-up.

[8] = read-out: TbAT1-KO EC50, mean and SEM, n = 3
[9] = mean and SEM, n = 3, read-out: ISMR1 EC50
[10] = source data, read-out: ISMR1 EC50, AVG
[11] = mean and SEM, n = 3, read-out: B48 EC50
[12] = source data, read-out: B48 EC50, AVG
[13] = source data, read-out: s427 EC50, AVG

CC[n+]1c(-c2ccccc2)c2cc(N/N=N/c3cccc(C(=N)N)c3)ccc2c2ccc(N)cc21 [Isometamidium, reference compound]
EC50 ([1]; read-out: TbAT1-KO EC50, AVG, source data): 736 nM | EC50 [1, 8]: 750 ± 140 nM | RF (TbAT1-KO) [1]: 1.2 | EC50 [2, 9]: 3100 ± 500 nM | EC50 [2, 10]: 5050 nM | RF (ISMR1) [2]: 4.8*** | EC50 [3, 11]: 560 ± 130 nM | EC50 [3, 12]: 514 nM | RF (B48) [3]: 0.85 | EC50 ([4]; read-out: Lister 427 EC50, mean and SEM, n = 3): 650 ± 85 nM | EC50 [4, 13]: 758 nM

Nc1nc(N)nc(Nc2ccc([As]3SCC(CO)S3)cc2)n1 (stereo not shown) [Melarsoprol, reference compound]
BLI of the head region, RLU data ([5]; 3 wpi (start of treatment, 21 dpi)): 20700000 RLU and 53700000 RLU | BLI of the head region, RLU data ([5]; 4 wpi): 96900 RLU and 114000 RLU | BLI of the head region, RLU data ([5]; 5 wpi): 83900 RLU and 96500 RLU | BLI of the head region, RLU data ([5]; 6 wpi): 85000 RLU and 111000 RLU | BLI of the head region, RLU data ([5]; 7 wpi): 90100 RLU and 74800 RLU | BLI of the head region, RLU data ([5]; 8 wpi): 81700 RLU and 77100 RLU | BLI of the head region, RLU data ([5]; 9 wpi): 73000 RLU and 85000 RLU | RLU data, individual mice ([5]; 3 wpi): 133100000 RLU and 14890000 RLU | RLU data, individual mice ([5]; 4 wpi): 121700 RLU and 135100 RLU | RLU data, individual mice ([5]; 5 wpi): 112200 RLU and 109500 RLU | RLU data, individual mice ([5]; 6 wpi): 106700 RLU and 93980 RLU | RLU data, individual mice ([5]; 7 wpi): 99910 RLU and 79400 RLU | RLU data, individual mice ([5]; 8 wpi): 117400 RLU and 101400 RLU | RLU data, individual mice ([5]; 9 wpi): 93050 RLU and 80330 RLU | RLU data, individual mice ([5]; 11 wpi): 77170 RLU and 73440 RLU | RLU data, individual mice ([5]; 12 wpi): 62170 RLU and 64300 RLU | RLU data, individual mice ([5]; 14 wpi): 67840 RLU and 67090 RLU | parasite burdens in brain, spleen and fat by SL-RNA qPCR ([5]; tissues collected at 121 dpi): complete absence of parasite burdens | luminescent signal in the head region ([5]; to levels similar to a non-infected control mouse): rapid decline of the signal

N=C(N)c1ccc(OCCCCCOc2ccc(C(=N)N)cc2)cc1 [Pentamidine, reference compound]
EC50 [1, 8]: 18 ± 2 nM | RF (TbAT1-KO) [1]: 1.8** | EC50 [2, 9]: 140 ± 40 nM | EC50 [2, 10]: 138 nM | RF (ISMR1) [2]: 13.8** | EC50 [3, 11]: 990 ± 160 nM | EC50 [3, 12]: 877 nM | RF (B48) [3]: 94.6*** | EC50 ([4]; mean and SEM, n = 3, read-out: Lister 427 EC50): 11 ± 1 nM | EC50 [4, 13]: 9.93 nM

Nc1ncnc2c1ccn2[C@@H]1O[C@H](CO)[C@@H](O)[C@H]1O [Tubercidin (6)]
EC50 ([6]; DCF +, single replicate, read-out: EC50): 173 nM and 283 nM and 470 nM | EC50 ([6]; DCF -, single replicate, read-out: EC50): 227 nM and 250 nM | EC50 ([6]; Trypanosoma brucei, DCF +, average of replicates, read-out: EC50 AVG): 309 nM | EC50 ([6]; Trypanosoma brucei, DCF +, read-out: EC50 Reported value): 310 ± 70 nM | EC50 ([6]; Trypanosoma brucei, DCF -, average of replicates, read-out: EC50 AVG): 223 nM | EC50 ([6]; Trypanosoma brucei, DCF -, read-out: EC50 Reported value): 220 ± 10 nM | EC50 ([6]; Trypanosoma brucei, DCF -, single replicate, read-out: EC50): 194 nM

Cc1ccc(C(=O)Nc2ccc(S(=O)(=O)O)c3cc(S(=O)(=O)O)cc(S(=O)(=O)O)c23)cc1NC(=O)c1cccc(NC(=O)Nc2cccc(C(=O)Nc3cc(C(=O)Nc4ccc(S(=O)(=O)O)c5cc(S(=O)(=O)O)cc(S(=O)(=O)O)c45)ccc3C)c2)c1 [suramin, reference compound]
parasitaemia, individual mice ([7]; 4 dpi): 0 | parasitaemia, individual mice ([7]; 7 dpi): 0 | parasitaemia, individual mice ([7]; 10 dpi): 0 | parasitaemia, individual mice ([7]; 14 dpi): 0 | parasitaemia, individual mice ([7]; 21 dpi): 0
